We go through 17 molecules from US20100286219A1, “1, 3-Dihydroimidazoles for Treating Cardiovascular Disorders” (BIAL - PORTELA & CA S.A., priority 2007, published 2010).

Structures are written as SMILES.

For one experiment, the target named is T1, human DβH (Homo sapiens, UniProt P09172).
T1 construct: endogenous in cells; host or cells: SK-N-SH cells
T1 sequence (P09172 1-617): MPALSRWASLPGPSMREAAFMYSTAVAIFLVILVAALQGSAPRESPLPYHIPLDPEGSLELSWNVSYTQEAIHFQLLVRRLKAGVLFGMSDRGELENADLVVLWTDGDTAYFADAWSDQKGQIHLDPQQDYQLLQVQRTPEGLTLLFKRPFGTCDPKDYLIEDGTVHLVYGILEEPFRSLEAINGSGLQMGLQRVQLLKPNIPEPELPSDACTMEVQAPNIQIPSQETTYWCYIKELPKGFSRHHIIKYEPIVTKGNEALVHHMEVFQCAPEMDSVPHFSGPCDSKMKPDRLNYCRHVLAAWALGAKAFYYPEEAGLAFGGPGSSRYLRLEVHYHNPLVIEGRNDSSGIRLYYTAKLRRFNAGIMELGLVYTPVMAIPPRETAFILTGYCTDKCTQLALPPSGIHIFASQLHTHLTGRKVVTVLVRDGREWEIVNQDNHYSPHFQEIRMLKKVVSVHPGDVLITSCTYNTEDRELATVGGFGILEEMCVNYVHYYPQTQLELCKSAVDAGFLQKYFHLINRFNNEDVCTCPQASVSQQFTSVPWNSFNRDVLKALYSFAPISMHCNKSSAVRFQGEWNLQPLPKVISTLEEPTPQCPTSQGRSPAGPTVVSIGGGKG
The experiment can be described thus: DβH activity in SK-N-SH cells (β-hydroxylation of dopamine to noradrenaline). The class given is cell-based. Particulars: for inhibition of DβH activity (in words): as listed in Table 1, 5 μM; for DβH activity, Mean ± SEM, % of control: compound 5 μM; for IC50 against human DβH activity (in words): concentration-dependent decrease in β-hydroxylation of dopamine.

The target in experiment [1] is T2, DβH (Mus musculus, UniProt Q64237).
T2 construct: noradrenaline levels in the mouse left ventricle and brain parietal cortex 9 h after oral administration; from tissue; host or cells: mouse left ventricle and brain parietal cortex (in vivo)
T2 sequence (Q64237 1-622): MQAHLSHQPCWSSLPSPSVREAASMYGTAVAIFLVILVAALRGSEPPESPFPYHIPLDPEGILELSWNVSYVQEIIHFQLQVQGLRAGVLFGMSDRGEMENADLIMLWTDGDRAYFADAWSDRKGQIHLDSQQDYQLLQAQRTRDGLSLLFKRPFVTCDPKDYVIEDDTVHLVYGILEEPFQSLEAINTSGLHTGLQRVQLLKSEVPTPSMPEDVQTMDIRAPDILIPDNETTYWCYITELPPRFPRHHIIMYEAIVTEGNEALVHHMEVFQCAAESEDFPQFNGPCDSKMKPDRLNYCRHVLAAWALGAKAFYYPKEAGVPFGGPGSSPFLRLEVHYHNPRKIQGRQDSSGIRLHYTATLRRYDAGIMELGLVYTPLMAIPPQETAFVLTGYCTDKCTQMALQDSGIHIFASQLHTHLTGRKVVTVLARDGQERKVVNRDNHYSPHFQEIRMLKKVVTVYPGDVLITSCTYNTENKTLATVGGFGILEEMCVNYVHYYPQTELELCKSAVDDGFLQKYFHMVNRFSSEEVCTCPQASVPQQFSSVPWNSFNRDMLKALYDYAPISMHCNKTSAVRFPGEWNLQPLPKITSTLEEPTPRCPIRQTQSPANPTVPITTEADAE
Description: Noradrenaline tissue levels in mouse heart and brain after oral administration. The experiment is classed as in vivo. As to the method:
FIG. 1 is a graph showing the time-dependent decrease of noradrenaline levels in the left ventricle of mice treated orally with 100 mg/kg of 4 or nepicastat 1. Symbols are means of 5 determinations per group; vertical lines indicate S.E.M.
FIG. 2 is two graphs showing noradrenaline levels in the mouse left ventricle and brain parietal cortex 9 h after oral administration of 4 or nepicastat 1. Symbols are means of 5 determinations per group; vertical lines indicate S.E.M.
Time of maximum effect (Tmax) for noradrenaline tissue reduction by both 4 and 1 appears to be at 9 h post-dose (FIG. 1). Thereafter, noradrenaline tissue levels recover, reaching 50% recovery of initial tissue levels at 24 h.
For both 4 and 1, the maximal inhibitory effect was attained at a dose of 100 mg/kg.

The target of experiment [2] is T3, DβH (Rattus norvegicus, UniProt Q05754).
T3 construct: noradrenaline levels in the rat heart (left atrium and left ventricle) and brain (frontal and parietal cortex); from tissue; host or cells: rat heart (left atrium, left ventricle) and brain (frontal and parietal cortex), in vivo
T3 sequence (Q05754 1-620): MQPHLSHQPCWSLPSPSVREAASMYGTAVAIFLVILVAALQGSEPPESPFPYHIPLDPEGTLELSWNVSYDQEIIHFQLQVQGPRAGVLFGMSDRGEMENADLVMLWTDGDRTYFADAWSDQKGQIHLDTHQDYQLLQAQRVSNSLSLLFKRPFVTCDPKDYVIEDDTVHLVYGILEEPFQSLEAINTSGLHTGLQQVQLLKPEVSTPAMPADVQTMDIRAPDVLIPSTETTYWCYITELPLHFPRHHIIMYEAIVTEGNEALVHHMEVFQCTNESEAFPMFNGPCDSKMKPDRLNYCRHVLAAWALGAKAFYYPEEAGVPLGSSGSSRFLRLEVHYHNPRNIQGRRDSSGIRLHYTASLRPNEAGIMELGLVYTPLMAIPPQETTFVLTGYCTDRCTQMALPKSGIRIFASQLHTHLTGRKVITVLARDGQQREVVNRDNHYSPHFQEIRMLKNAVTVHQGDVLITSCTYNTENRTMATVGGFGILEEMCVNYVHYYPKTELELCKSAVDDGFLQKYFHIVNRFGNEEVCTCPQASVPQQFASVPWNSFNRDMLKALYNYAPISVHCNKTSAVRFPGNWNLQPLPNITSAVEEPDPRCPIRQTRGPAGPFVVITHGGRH
Description: Noradrenaline tissue levels in rat heart and brain after oral administration. The class given is in vivo. As to the method: FIG. 3 is four graphs showing noradrenaline levels in the rat heart (left atrium and left ventricle) and brain (frontal and parietal cortex) 9 h after the oral administration of 4 or nepicastat 1. Columns are means of 5 determinations per group; vertical lines indicated S.E.M.

Where [3] appears, read: mouse, 9 h after oral administration.

Take `Cl.NCCc1c[nH]c(=S)n1[C@H]1COc2cc(F)c(F)cc2C1` [Compound 8, (R)-5-(2-aminoethyl)-1-(6,7-difluorochroman-3-yl)-1,3-dihydroimidazole-2-thione hydrochloride]: the “inhibition of DβH activity (in words)” value against human DβH is listed as “markedly inhibit”.
In the case of `COc1ccc2c(c1)C[C@@H](n1c(CCN)c[nH]c1=S)CS2.Cl` (racemic) [Compound 30, (R,S)-5-(2-aminoethyl)-1-(6-methoxythiochroman-3-yl)-1,3-dihydroimidazole-2-thione hydrochloride], on human DβH, the “DβH activity, Mean ± SEM, % of control” value is on record as 99.4 ± 2.8 % of control.
Consider `Cl.Oc1ccc2c(c1)C[C@@H](n1c(CCNCc3ccccc3)c[nH]c1=S)CO2` [Compound 26, (R)-5-(2-Benzylaminoethyl)-1-(6-hydroxychroman-3-yl)-1,3-dihydroimidazole-2-thione hydrochloride], for which, at human DβH, the “inhibition of DβH activity (in words)” value is “markedly inhibit”.
With `Cl.NCc1c[nH]c(=S)n1[C@H]1COc2c(F)cc(F)cc2C1` [Compound 3, (R)-5-aminomethyl-1-(6,8-difluorochroman-3-yl)-1,3-dihydroimidazole-2-thione hydrochloride], at human DβH, the “inhibition of DβH activity (in words)” value is on record as “markedly inhibit” and the “IC50 against human DβH activity (in words)” value (“IC50” for short) is given as “low nM range”.
With `Cl.NCCc1c[nH]c(=S)n1[C@H]1COc2ccc(F)cc2C1` [Compound 7, (R)-5-(2-aminoethyl)-1-(6-fluorochroman-3-yl)-1,3-dihydroimidazole-2-thione hydrochloride], on human DβH, the “inhibition of DβH activity (in words)” value is “markedly inhibit” and the “DβH activity, Mean ± SEM, % of control” value is given as 8.0 ± 0.1 % of control.
For `Cl.NCCc1c[nH]c(=S)n1[C@H]1CSc2ccc(O)cc2C1` (racemic) [Compound 31, (R,S)-5-(2-aminoethyl)-1-(6-hydroxythiochroman-3-yl)-1,3-dihydroimidazole-2-thione hydrochloride], the “DβH activity, Mean ± SEM, % of control” value at human DβH is 27.3 ± 0.4 % of control.
As for `Cl.NCCc1c[nH]c(=S)n1[C@H]1CCc2c(F)cc(F)cc2C1` [Compound 2, (S)-5-(2-aminoethyl)-1-(5,7-difluoro-1,2,3,4-tetrahydronaphthalen-2-yl)-1,3-dihydroimidazole-2-thione hydrochloride], on human DβH, the “inhibition of DβH activity (in words)” value is “markedly inhibit” and the “IC50” value is “low nM range”.
For `Cl.NCCc1c[nH]c(=S)n1[C@H]1COc2c(cc(F)c(F)c2F)C1` [Compound 10, (R)-5-(2-aminoethyl)-1-(6,7,8-trifluorochroman-3-yl)-1,3-dihydroimidazole-2-thione hydrochloride], the “inhibition of DβH activity (in words)” value at human DβH is listed as “markedly inhibit”.
As to `COc1cccc2c1OC[C@H](n1c(CCN)c[nH]c1=S)C2.Cl` [Compound 19, (R)-5-(2-aminoethyl)-1-(8-methoxychroman-3-yl)-1,3-dihydroimidazole-2-thione hydrochloride], the “inhibition of DβH activity (in words)” value on human DβH was “markedly inhibit”.
With `Cl.NCc1c[nH]c(=S)n1[C@H]1COc2ccccc2C1` [Compound 24, (R)-5-aminomethyl-1-chroman-3-yl-1,3-dihydroimidazole-2-thione hydrochloride], on human DβH, the “inhibition of DβH activity (in words)” value was “markedly inhibit” and the “DβH activity, Mean ± SEM, % of control” value was 0.0 ± 1.9 % of control.
For `NCc1c[nH]c(=S)n1[C@H]1CCc2c(F)cc(F)cc2C1` [Nepicastat 1, nepicastat, reference compound], on human DβH, the “DβH activity, Mean ± SEM, % of control” value is on record as 0.0 ± 0.3 % of control and the “IC50” value is “low nM range”. For the same molecule, the “Time of maximum effect (Tmax) for noradrenaline tissue reduction” value at DβH [1] (mouse heart (left ventricle), 100 mg/kg oral) is given as 9 h. Further, at DβH [1] (mouse heart, 100 mg/kg, at 24 h), the “recovery of initial noradrenaline tissue levels” value came out at 50%. Also, the “duration of action (in words)” value on DβH [1] (mouse heart, time course at 100 mg/kg) is recorded as “long acting”. Besides, the “dose at which maximal inhibitory effect was attained” value at DβH [1] (mouse left ventricle noradrenaline, 9 h after administration) is 100 mg/kg. Moreover, at DβH [1] (setting [3]), the “effect on noradrenaline levels in left ventricle” value is recorded as “reduced noradrenaline levels in a dose-dependent manner” and the “effect on noradrenaline tissue levels in brain parietal cortex” value is listed as “produced a dose-dependent decrease”. On DβH [2] (rat (data not shown)), the “dose dependence of effect upon noradrenaline” value was “dependent on the dose administered” and the “time of maximum effect upon noradrenaline” value amounted to 9 h. On DβH [2] (rat, 9 h after oral administration), the “effect on noradrenaline tissue levels in brain parietal cortex and brain frontal cortex” value is recorded as “produced a marked decrease”.
For the molecule `Cl.NCCc1c[nH]c(=S)n1[C@H]1COc2ccccc2C1` [Compound 12, (R)-5-(2-aminoethyl)-1-chroman-3-yl-1,3-dihydroimidazole-2-thione hydrochloride], at human DβH, the “inhibition of DβH activity (in words)” value is “markedly inhibit” and the “DβH activity, Mean ± SEM, % of control” value is listed as 3.0 ± 0.5 % of control.
Regarding `Cl.NCCc1c[nH]c(=S)n1[C@H]1COc2c(F)cccc2C1` [Compound 6, (R)-5-(2-aminoethyl)-1-(8-fluorochroman-3-yl)-1,3-dihydroimidazole-2-thione hydrochloride], the “inhibition of DβH activity (in words)” value at human DβH is “markedly inhibit”.
Turning to `CNCCc1c[nH]c(=S)n1[C@H]1COc2c(F)cc(F)cc2C1.Cl` [Compound 28, (R)-1-(6,8-Difluorochroman-3-yl)-5-(2-methylaminoethyl)-1,3-dihydroimidazole-2-thione hydrochloride], the “inhibition of DβH activity (in words)” value against human DβH is given as “markedly inhibit”.
Consider `Cl.NCCc1c[nH]c(=S)n1[C@H]1COc2ccc(O)cc2C1` [Compound 16, (R)-5-(2-aminoethyl)-1-(6-hydroxychroman-3-yl)-1,3-dihydroimidazole-2-thione hydrochloride], for which, at human DβH, the “inhibition of DβH activity (in words)” value is “markedly inhibit” and the “DβH activity, Mean ± SEM, % of control” value is reported as 0.0 ± 0.6 % of control.
On to `CNCCc1c[nH]c(=S)n1[C@H]1COc2ccccc2C1.Cl` [Compound 29, (R)-1-Chroman-3-yl-5-(2-methylaminoethyl)-1,3-dihydroimidazole-2-thione hydrochloride], for which the “inhibition of DβH activity (in words)” value against human DβH is on record as “markedly inhibit”.
In the case of `Cl.NCCCc1c[nH]c(=S)n1[C@H]1CCc2c(F)cc(F)cc2C1` [Compound 5, (S)-5-(3-aminopropyl)-1-(5,7-difluoro-1,2,3,4-tetrahydronaphthalen-2-yl)-1,3-dihydroimidazole-2-thione hydrochloride], the “inhibition of DβH activity (in words)” value against human DβH is on record as “markedly inhibit”.
